Test results published in ChEMBL document CHEMBL1133056, “Structure-activity relationships of halichondrin B analogues: modifications at C.30-C.38” (Bioorg Med Chem Lett, 2000).
Each block holds one compound with its values, some of them ahead of it.

Legend:
[1] = tested on: DLD-1; test: The compound was tested for cell growth inhibition against DLD-1 human colon cancer cells under continuous exposure conditions for 3-4 days; type: functional, cell-based
[2] = tested on: P388; test: The compound was tested for susceptibility to […] murine P388/S leukemia cells under continuous exposure conditions for 3-4 days; type: functional, cell-based; conditions: Mus musculus
[3] = tested on: P388; test: The compound was tested for susceptibility to P-glycoprotein (PgP) mediated drug efflux using murine P388/VMDRC.04 cells under continuous exposure conditions for 3-4 days; type: functional, cell-based; conditions: Mus musculus
[4] = The compound was tested for its ability to maintain a irreversible mitotic block 10 hr after drug washout using flow cytometric analysis of U937 human histiocytic lymphoma cells; type: functional; conditions: U-937, 10 h
[5] = tested on: P388; test: Fold resistance was calculated as IC50 ratio between retrovirally transformed P388/VMDRC.04 and parental P388/S cells; type: functional, Mus musculus

IC50 [1]: 610 nM
SMILES: C=C1C[C@@H]2CC[C@@]34C[C@@H]5O[C@@H]6[C@@H](O[C@H]7CC[C@H](CC(=O)O[C@@H]8C[C@@H]9O[C@H](CO)[C@@H](O)C[C@@H]9O[C@H]8C[C@H]8O[C@@H](CC[C@@H]1O2)C[C@@H](C)C8=C)O[C@@H]7[C@@H]6O3)[C@H]5O4

SMILES: C=C1C[C@@H]2CC[C@@]34C[C@@H]5O[C@@H]6[C@@H](O[C@H]7CC[C@H](CC(=O)O[C@@H]8[C@@H](CC)[C@@H]9O[C@H](CO)[C@@H](O)C[C@@H]9O[C@H]8C[C@H]8O[C@@H](CC[C@@H]1O2)C[C@@H](C)C8=C)O[C@@H]7[C@@H]6O3)[C@H]5O4
IC50 [2]: 1.6 nM | IC50 [1]: 6 nM | IC50 [3]: 16 nM | IC99 [4]: 1 µM | FR [5]: 10

SMILES: C=C1C[C@@H]2CC[C@@]34C[C@@H]5O[C@@H]6[C@@H](O[C@H]7CC[C@H](CC(=O)O[C@@H]8[C@@H](C)[C@@H]9O[C@H](CCO)[C@@H](O)C[C@@H]9O[C@H]8C[C@H]8O[C@@H](CC[C@@H]1O2)C[C@@H](C)C8=C)O[C@@H]7[C@@H]6O3)[C@H]5O4
IC50 [2]: 1.7 nM | IC50 [1]: 3.6 nM | IC50 [3]: 1.6 nM | IC99 [4]: > 1 µM | FR [5]: 9.4

SMILES: C=C1C[C@@H]2CC[C@@]34C[C@@H]5O[C@@H]6[C@@H](O[C@H]7CC[C@H](CC(=O)O[C@@H]8[C@@H](C)[C@@H]9O[C@H](CO)[C@H](O)C[C@@H]9O[C@H]8C[C@H]8O[C@@H](CC[C@@H]1O2)C[C@@H](C)C8=C)O[C@@H]7[C@@H]6O3)[C@H]5O4
IC50 [2]: 0.71 nM | IC50 [1]: 3.4 nM | IC50 [3]: 8.2 nM | IC99 [4]: 0.22 µM | FR [5]: 12

IC50 [1]: 230 nM
SMILES: C=C1C[C@@H]2CC[C@@]34C[C@@H]5O[C@@H]6[C@@H](O[C@H]7CC[C@H](CC(=O)O[C@H]8C[C@@H]9O[C@H](CO)[C@@H](O)C[C@@H]9O[C@H]8C[C@H]8O[C@@H](CC[C@@H]1O2)C[C@@H](C)C8=C)O[C@@H]7[C@@H]6O3)[C@H]5O4

SMILES: C=C1C[C@@H]2CC[C@@]34C[C@@H]5O[C@@H]6[C@@H](O[C@H]7CC[C@H](CC(=O)O[C@@H]8[C@@H](C)[C@@H]9O[C@@H]%10CCO[C@@H]%10C[C@@H]9O[C@H]8C[C@H]8O[C@@H](CC[C@@H]1O2)C[C@@H](C)C8=C)O[C@@H]7[C@@H]6O3)[C@H]5O4
IC50 [2]: 1.3 nM | IC50 [1]: 2.6 nM | IC50 [3]: 2.7 nM | IC99 [4]: > 1 µM | FR [5]: 2.1

SMILES: C=C1C[C@@H]2CC[C@@]34C[C@@H]5O[C@@H]6[C@@H](O[C@H]7CC[C@H](CC(=O)O[C@@H]8[C@@H](C)[C@@H]9O[C@@H]%10CCOC%10(O)C[C@@H]9O[C@H]8C[C@H]8O[C@@H](CC[C@@H]1O2)C[C@@H](C)C8=C)O[C@@H]7[C@@H]6O3)[C@H]5O4 (some centres not stated)
IC50 [2]: 3.1 nM | IC50 [1]: 5.2 nM | IC50 [3]: 6.3 nM | IC99 [4]: 1 µM | FR [5]: 2

SMILES: C=C1C[C@@H]2CC[C@@]34C[C@@H]5O[C@@H]6[C@@H](O[C@H]7CC[C@H](CC(=O)O[C@@H]8[C@@H](C)[C@@H]9O[C@H](CCOC)[C@H](O)C[C@@H]9O[C@H]8C[C@H]8O[C@@H](CC[C@@H]1O2)C[C@@H](C)C8=C)O[C@@H]7[C@@H]6O3)[C@H]5O4
IC50 [2]: 0.55 nM | IC50 [1]: 1.2 nM | IC50 [3]: 1.5 nM | IC99 [4]: > 0.65 µM | FR [5]: 2.7

SMILES: C=C1C[C@@H]2CC[C@@]34C[C@@H]5O[C@@H]6[C@@H](O[C@H]7CC[C@H](CC(=O)O[C@@H]8[C@@H](C)[C@@H]9O[C@@H]%10CC(O)O[C@@H]%10C[C@@H]9O[C@H]8C[C@H]8O[C@@H](CC[C@@H]1O2)C[C@@H](C)C8=C)O[C@@H]7[C@@H]6O3)[C@H]5O4 (some centres not stated)
IC50 [2]: 1.5 nM | IC50 [1]: 2.1 nM | IC50 [3]: 3.8 nM | IC99 [4]: > 1 µM | FR [5]: 2.5

SMILES: C=C1C[C@@H]2CC[C@@]34C[C@@H]5O[C@@H]6[C@@H](O[C@H]7CC[C@H](CC(=O)O[C@@H]8[C@@H](C)[C@@H]9O[C@H](CCO)[C@H](O)C[C@@H]9O[C@H]8C[C@H]8O[C@@H](CC[C@@H]1O2)C[C@@H](C)C8=C)O[C@@H]7[C@@H]6O3)[C@H]5O4
IC50 [2]: 2.2 nM | IC50 [1]: 4.6 nM | IC50 [3]: 8.8 nM | IC99 [4]: > 0.88 µM | FR [5]: 4

SMILES: C=C1C[C@@H]2CCC34C[C@@H]5O[C@@H]6[C@@H](O[C@H]7CC[C@H](CC(=O)O[C@@H]8[C@@H](C)[C@@H]9O[C@@H]%10C[C@]%11(C[C@@H]%12O[C@]%13(C[C@H](C)[C@@H]%14O[C@H]([C@@H](O)C[C@@H](O)CO)C[C@@H]%14O%13)C[C@H](C)[C@@H]%12O%11)O[C@@H]%10C[C@@H]9O[C@H]8C[C@H]8O[C@@H](CC[C@@H]1O2)C[C@@H](C)C8=C)O[C@@H]7[C@@H]6O3)[C@H]5O4
IC50 [2]: 0.6 nM | IC50 [1]: 0.74 nM | IC50 [3]: 1.7 nM | IC99 [4]: 0.025 µM | FR [5]: 2.8

SMILES: CC(=O)O[C@H]1C(=O)[C@@]2(C)[C@H]([C@H](OC(=O)c3ccccc3)[C@]3(O)C[C@H](OC(=O)[C@H](O)[C@@H](NC(=O)c4ccccc4)c4ccccc4)C(C)=C1C3(C)C)[C@]1(OC(C)=O)CO[C@@H]1C[C@@H]2O [PACLITAXEL]
IC50 [2]: 16 nM | IC50 [1]: 27 nM | IC50 [3]: 170 nM | IC99 [4]: 0.23 µM | FR [5]: 11
